Laboratory results reported in patent publication US6063777A, “Iminochlorinaspartic acid derivatives” (Wyeth Lederle Japan, Ltd., priority 1996, dated 2000).

Assays:
choriocapillaris = assay: Occlusion of choriocapillaris by PDT, histological findings 24 hours after laser irradiation; format: in vivo, rats (Long Evance Rats); settings: 16 mg/kg
Procedure: (§1) The following experiments were performed to investigate the optimal treatment parameters (timing of laser irradiation after dosing of the compound; laser irradiation dosage) for selective occlusion of choroidal neoplastic vessels by PDT using the compound of the present invention and a diode laser (produced by Hamamatsu Photonics; wavelength: 672 nm).
(§2) Photocoagulation was induced in rats (Long Evance Rats weighing 200-300 g) by Argon green laser irradiation (irradiation diameter: 100 μm, 140 mW, 0.1 sec) near the retinal papilla on funduc oculi. Ten days after photocoagulation, fundus photographs and fluorescein angiographs were taken and the animals showing development of choroidal neovascularization were used for experiments at the 11th day.
(§3) The compound of the present invention was administered via the tail vein at a dose of 16 mg/kg. After administration, time course distribution of the compound in the eyeball tissues was observed by fluorescence microscopy.
(§4) Laser irradiation was done by using the above-mentioned diode laser. The laser beam was confirmed to extend in the range of 500 μm in diameter on the retinal surface. Duration of irradiation was 4 minutes and the irradiation intensity varied at 30.6, 91.7, 152.9 and 244.9 mW/cm^2 on the retinal surface. These values correspond to 7.4, 22.0, 36.7 and 58.8 J/cm^2, respectively.
(§5) Assessment of the PDT using the compound of the present invention was made based on the fundus photographs taken with a fundus camera (produced by Jenesis Kowa) at 1 hour and 24 hours after laser irradiation. Occlusion of the neoplastic vessels and damage to the surrounding tissues were investigated by fluorescein antiography and histological examinations to assess the selectivity of the therapeutic effect.

colon cancer Colon 26 = assay: Laser irradiation to extirpated organ: distribution (cancer/organ ratio) by surface fluorescence, N2-pulsed laser, mice bearing Colon 26; format: in vivo, CDF1 mice; settings: for Cancer/Brain ratio / Cancer/Kidney ratio / Cancer/Liver ratio / Cancer/Lung ratio / Cancer/Muscle ratio: sodium salt, 10 mg/kg intravenous
Procedure: (§6) CDF1 mice (5 per group) were implanted with tumor tissues of colon cancer Colon 26. Two weeks after the implantation, the mice were given an intravenous injection of sodium salt of each of compounds (I) and (II) (10 mg/kg for each mouse) which had been diluted with a distilled water for injection. At 3 hrs, 6 hrs and 12 hrs after the injection, the blood samples were collected and the organs bearing the tumor tissue were extirpated, irradiated with N2 -pulsed laser (N2, wavelength: 337 nm, 2 ns), and the excited fluorescent spectrum was measured. The wavelengths in the range of 600 to 900 nm were examined based on the peak wavelength of NADH at 470 nm (determination of the distribution of the test compound in the organ by the surface fluorescence method using N2 -pulsed laser spectrophotometry). That is, cancer/organ (or plasma) ratio was determined by calculating the peak wavelength in the range of 600 to 900 nm when the peak wavelength at 470 nm was considered as the basic value, 1.

[1] = as above; format: in vivo, CDF1 mice; settings: mouse, tumor/plasma, sodium salt, 10 mg/kg intravenous
Procedure: as §6

[2] = test system: choroidal arteries and veins; assay: Occlusion of choroidal arteries and veins by PDT, histological findings 24 hours after laser irradiation; format: in vivo, rats (Long Evance Rats); settings: 16 mg/kg
Procedure: as §1, §2, §3, §4, §5

[3] = 7.4 J/cm^2, irradiation 60 min after administration
[4] = 7.4 J/cm^2, irradiation 120 min after administration
[5] = 7.4 J/cm^2, irradiation 240 min after administration
[6] = 22.0 J/cm^2, irradiation 60 min after administration
[7] = 22.0 J/cm^2, irradiation 120 min after administration
[8] = 22.0 J/cm^2, irradiation 240 min after administration
[9] = 36.7 J/cm^2, irradiation 60 min after administration
[10] = 36.7 J/cm^2, irradiation 120 min after administration
[11] = 36.7 J/cm^2, irradiation 240 min after administration
[12] = 36.7 J/cm^2, irradiation immediately after administration
[13] = 58.8 J/cm^2, irradiation 60 min after administration
[14] = 58.8 J/cm^2, irradiation 120 min after administration
[15] = 58.8 J/cm^2, irradiation 240 min after administration
[16] = 58.8 J/cm^2, irradiation immediately after administration

## C=Cc1c(C)c2cc3nc(cc4[nH]c(cc5nc(cc1[nH]2)C(C)=C5CCC(=O)NC(CC(=O)O)C(=O)O)c(CCC(=O)NC(CC(=O)O)C(=O)O)c4C)C(C)(O)C3=CC=NO (stereo not shown) [Compound (I)]
choriocapillaris; [3]
  Occlusion of choriocapillaris: Closed
choriocapillaris; [4]
  Occlusion of choriocapillaris: Open
choriocapillaris; [5]
  Occlusion of choriocapillaris: Open
choriocapillaris; 7.4 J/cm^2, irradiation immediately after administration
  Occlusion of choriocapillaris: Closed
choriocapillaris; [6]
  Occlusion of choriocapillaris: Closed
choriocapillaris; [7]
  Occlusion of choriocapillaris: Closed
choriocapillaris; [8]
  Occlusion of choriocapillaris: Closed
choriocapillaris; 22.0 J/cm^2, irradiation immediately after administration
  Occlusion of choriocapillaris: Closed
choriocapillaris; [9]
  Occlusion of choriocapillaris: Closed
choriocapillaris; [10]
  Occlusion of choriocapillaris: Closed
choriocapillaris; [11]
  Occlusion of choriocapillaris: Closed
choriocapillaris; [12]
  Occlusion of choriocapillaris: Closed
choriocapillaris; [13]
  Occlusion of choriocapillaris: Closed
choriocapillaris; [14]
  Occlusion of choriocapillaris: Closed
choriocapillaris; [15]
  Occlusion of choriocapillaris: Closed
choriocapillaris; [16]
  Occlusion of choriocapillaris: Closed
Colon cancer Colon 26; 3 hr
  Cancer/Brain ratio: 11.24
  Cancer/Kidney ratio: 1.54
  Cancer/Liver ratio: 1.35
  Cancer/Lung ratio: 5.02
  Cancer/Muscle ratio: 4.19
Colon cancer Colon 26; 6 hr
  Cancer/Brain ratio: 15.14
  Cancer/Kidney ratio: 1.36
  Cancer/Liver ratio: 2.02
  Cancer/Lung ratio: 7.85
  Cancer/Muscle ratio: 3.72
Colon cancer Colon 26; 12 hr
  Cancer/Brain ratio: 15.0
  Cancer/Kidney ratio: 1.27
  Cancer/Liver ratio: 0.92
  Cancer/Lung ratio: 6.45
  Cancer/Muscle ratio: 4.73
Colon cancer Colon 26; compared with position isomer
  accumulability to cancerous tissues: much higher accumulability to cancerous tissues as compared with its position isomer
[1]; 3 hr
  Kp at 3 h: 1.48
[1]; 6 hr
  Kp at 6 h: 1.18
[1]; 12 hr
  Kp at 12 h: 2.37
[2]; [3]
  Occlusion of choroidal arteries and veins: Closed
[2]; [4]
  Occlusion of choroidal arteries and veins: Open
[2]; [5]
  Occlusion of choroidal arteries and veins: Open
[2]; [6]
  Occlusion of choroidal arteries and veins: Closed
[2]; [7]
  Occlusion of choroidal arteries and veins: Open
[2]; [8]
  Occlusion of choroidal arteries and veins: Open
[2]; [9]
  Occlusion of choroidal arteries and veins: Closed
[2]; [10]
  Occlusion of choroidal arteries and veins: Open
[2]; [11]
  Occlusion of choroidal arteries and veins: Open
[2]; [12]
  Occlusion of choroidal arteries and veins: Closed
[2]; [13]
  Occlusion of choroidal arteries and veins: Closed
[2]; [14]
  Occlusion of choroidal arteries and veins: Open
[2]; [15]
  Occlusion of choroidal arteries and veins: Open
[2]; [16]
  Occlusion of choroidal arteries and veins: Closed
